# From patent US20140051875A1, “CRYSTALLINE FORM OF MAXACALCITOL” (FORMOSA LABORATORIES INC., priority 2012, published 2014)
# Read-outs that look alike come from different tables or passages of the source.
# What was measured:
# [1] = cited from earlier work
# [2] = Storage stability of maxacalcitol hydrate under an inert gas atmosphere; assay type: physicochemical; conditions: under an inert gas atmosphere at 25° C.
# From the text: In a preferred embodiment, the maxacalcitol hydrate is stored in an amber vial.
stability to storage: no degradation for (time) [2],SMILES,stability: decomposed after storage (time) ([1]; amber vial under inert gas environment at 25° C.) [weeks],stability: stable for (storage time) ([1]; amber vial under inert gas environment at −20° C.) [months],stability: stable for (storage time) ([1]; amber vial under inert gas environment at −80° C.) [months],"decomposition on storage ([1]; at 25° C., according to the JP interview form)"
,"C=C1/C(=C\C=C2/CCC[C@]3(C)[C@@H]([C@H](C)OCCC(C)(C)O)CC[C@@H]23)C[C@@H](O)C[C@@H]1O [maxacalcitol, (+)-(5Z,7E,20S)-20-(3-Hydroxy-3-methylbutoxy)-9,10-secopregna-5,7,10(19)-triene-1α,3β-diol]",4,6,36,considerable degree of decomposition
at least 32 days,C=C1/C(=C\C=C2/CCC[C@]3(C)[C@@H]([C@H](C)OCCC(C)(C)O)CC[C@@H]23)C[C@@H](O)C[C@@H]1O [maxacalcitol hydrate],,,,
